Results published in patent publication USRE38132E1, “Phenylpyrrolidines, phenylimidazolidines,3-phenyl-1,3-oxizolidines and 3-phenyl-1,3-thiazolidines and their use in the treatment of inflammatory disease” (Boehringer Ingelheim Pharmaceuticals, Inc., priority 1997, dated 2003).

Columns and labels:
[1] = test system: human MLR, peripheral blood mononuclear cells; assay: Inhibition of the mixed lymphocyte reaction (MLR), tritiated thymidine uptake; assay type: cell-based; design: key: Data are reported as “+” or “−” at a given concentration (in μM); Data are reported as “+” or “−” at a given concentration (in μM)
Experimental: Assay to Determine Inhibition the Mixed Lymphocyte Reaction
As discussed above, ICAM-1 is necessary for effective cellular interactions during an immune response mediated through LFA-1-dependent cell adhesion. When lymphocytes from two unrelated individuals are cultured together, blast transformation and cell proliferation of the lymphocytes are observed. This response is known as a mixed lymphocyte reaction (MLR) and is analogous to the response of lymphocytes to the 10 addition of antigens or mitogens (Immunology: The Science of Self-Nonself Discrimination; Klein, J., Ed.; John Wiley & Sons: NY, 1982, pp 453-458).
This assay protocol is used to determine the effect of a test compound on the human MLR.
Description of Assay Protocol:
Peripheral blood is obtained from normal, healthy donors by venipuncture. The blood is collected in heparinized tubes and diluted 1:1 at room temperature with Puck's G (GIBCO) balanced salt solution (BSS). The blood mixture (20 mL) is layered over 15 mL of a Ficoll/Hypaque density gradient (Pharmacia, density=1.078, room temperature) and centrifuged at 1000·g for 20 minutes. The interface is then collected and washed 3 times in Puck's G. The cells are counted on a hemocytometer and resuspended in RPMI 1640 culture medium (GIBCO) containing 0.5% of gentamicin, 1 mM L-glutamine (GICO) and 5% heat inactivated (56° C., 30 min) human AB sera (Flow Laboratories) (hereafter referred to as RPMI-culture medium).
Stimulator cells (cells that have been treated with irradiation so that they are unable to proliferate) from a separate donor are cultured with the responder cells at the same concentration. Test compound is added to wells at various concentrations. The total volume per culture is 0.2 mL. Controls include compound vehicle alone (DMSO), responder cells alone, and stimulator cells alone. The culture plates are incubated at 37° C. in a 5% CO2-humidified air atmosphere for 5 days.
The wells are pulsed with 0.5 μCi of tritiated thymidine (^3HT) (New England Nuclear) for the last 18 h of culture. In some cases a two-way MLR can be performed. The protocol is the same except that the second donor's cells are not inactivated by irradiation.
The cells are harvested onto glass fiber filters using an automated multiple sample harvester (Skatron, Norway), and rinsed with water and methanol. The filters are oven dried and counted in Aquasol in a Beckman (LS-3801) liquid scintillation counter.
Data are reported as “+” or “−” at a given concentration (in μM).

[2] = target: T1, interaction of ICAM-1 with the Leukointegrin CD18/CD11a (LFA-1) (Homo sapiens, UniProt P05107+P20701); assay: Assay to determine inhibition of LFA-1 binding to ICAM-1 (immunopurified LFA-1 on plate-bound sICAM-1, ELISA readout); settings: values marked e approximated from incomplete dose-response curve
T1 construct: endogenous in cells; sICAM-1: made in house, secreted from transfected CHO DUX cells
T1 sequence (P20701 26-1170): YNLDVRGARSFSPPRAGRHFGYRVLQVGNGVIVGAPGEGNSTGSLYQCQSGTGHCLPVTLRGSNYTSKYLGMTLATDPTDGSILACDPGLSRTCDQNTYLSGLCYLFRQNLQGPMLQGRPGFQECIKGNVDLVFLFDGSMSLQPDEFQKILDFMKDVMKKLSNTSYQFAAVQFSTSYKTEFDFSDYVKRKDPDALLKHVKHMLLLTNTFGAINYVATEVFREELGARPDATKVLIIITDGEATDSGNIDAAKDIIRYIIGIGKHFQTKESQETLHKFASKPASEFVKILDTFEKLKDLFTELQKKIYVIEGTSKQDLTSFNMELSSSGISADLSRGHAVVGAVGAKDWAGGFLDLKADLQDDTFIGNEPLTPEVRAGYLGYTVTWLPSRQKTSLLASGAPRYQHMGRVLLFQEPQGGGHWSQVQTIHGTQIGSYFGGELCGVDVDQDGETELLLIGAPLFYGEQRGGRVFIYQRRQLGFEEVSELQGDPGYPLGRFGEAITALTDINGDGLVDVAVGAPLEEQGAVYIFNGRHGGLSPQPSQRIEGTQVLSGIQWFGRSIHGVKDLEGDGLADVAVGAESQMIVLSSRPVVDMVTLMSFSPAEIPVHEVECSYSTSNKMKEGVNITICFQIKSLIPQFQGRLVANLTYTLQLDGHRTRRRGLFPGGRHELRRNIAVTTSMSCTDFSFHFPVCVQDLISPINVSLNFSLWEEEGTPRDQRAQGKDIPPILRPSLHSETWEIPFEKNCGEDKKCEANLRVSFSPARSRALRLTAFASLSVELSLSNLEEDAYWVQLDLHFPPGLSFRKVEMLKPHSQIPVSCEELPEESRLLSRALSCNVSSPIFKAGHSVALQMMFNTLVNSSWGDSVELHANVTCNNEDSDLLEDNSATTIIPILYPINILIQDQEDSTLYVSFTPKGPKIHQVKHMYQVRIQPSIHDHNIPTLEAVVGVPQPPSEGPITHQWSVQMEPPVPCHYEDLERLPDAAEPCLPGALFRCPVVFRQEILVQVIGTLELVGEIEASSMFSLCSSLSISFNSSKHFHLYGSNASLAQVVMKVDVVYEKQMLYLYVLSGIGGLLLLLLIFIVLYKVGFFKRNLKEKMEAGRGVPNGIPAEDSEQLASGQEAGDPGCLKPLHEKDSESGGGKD
T1 sequence (P05107 23-769): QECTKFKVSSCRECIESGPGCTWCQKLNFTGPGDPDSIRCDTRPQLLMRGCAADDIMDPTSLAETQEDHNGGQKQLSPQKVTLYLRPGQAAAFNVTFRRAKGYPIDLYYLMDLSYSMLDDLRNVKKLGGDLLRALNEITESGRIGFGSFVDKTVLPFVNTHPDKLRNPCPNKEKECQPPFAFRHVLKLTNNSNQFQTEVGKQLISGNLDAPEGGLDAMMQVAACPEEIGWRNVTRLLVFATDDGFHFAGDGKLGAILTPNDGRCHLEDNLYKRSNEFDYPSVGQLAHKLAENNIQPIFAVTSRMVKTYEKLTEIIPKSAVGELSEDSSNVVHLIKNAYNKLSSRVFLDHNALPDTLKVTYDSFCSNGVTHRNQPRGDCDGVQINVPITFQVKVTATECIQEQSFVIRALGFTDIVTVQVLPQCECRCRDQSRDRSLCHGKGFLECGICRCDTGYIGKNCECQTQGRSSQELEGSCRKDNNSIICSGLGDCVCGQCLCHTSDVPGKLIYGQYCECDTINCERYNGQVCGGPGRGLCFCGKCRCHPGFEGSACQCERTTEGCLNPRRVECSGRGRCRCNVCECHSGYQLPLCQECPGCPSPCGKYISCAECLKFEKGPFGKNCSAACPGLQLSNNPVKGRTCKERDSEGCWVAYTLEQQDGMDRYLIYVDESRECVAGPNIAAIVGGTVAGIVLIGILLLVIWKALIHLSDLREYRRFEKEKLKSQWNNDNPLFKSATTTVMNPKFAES

[3] = test system: allogeneic cell transplant response, popliteal lymph node; assay: In vivo allogeneic cell transplant model (popliteal lymph node weight); settings: Mus musculus, po; mice, per os, dose at which 50% inhibition is observed; read-out: Allogeneic Cell Transplantation Assay ACT ED50
Source text: In vivo: Allogeneic Cell Transplant Model Purpose of Assay: The ability of cells to recognize other cells from self or from another genetically different individual (non-self) is an important property in maintaining the integrity of tissue and organ structure. The allogeneic cell transplant response is an important model for studies of transplant rejection and immunocompetence. This T-cell-mediated immune response can be induced in adult mice by the injection of lymphocytes from a histoincompatible mouse strain into the footpad . This response is characterized by T-cell proliferation which is limited to the popliteal lymph node that receives drainage from the injected footpad area. No in vitro system can completely duplicate this in vivo response. Thus, this animal model can be used to assess the ability of a test compound to suppress transplant rejection. Description of Assay Protocol: Experiments are conducted using male or female mice (20-26 grams). Any histoincompatible mouse strains suffice for donor and recipient populations. Typically DBA mice are used as donors and […] mice are used as recipients. A minimum of 1 week stabilization and conditioning period is required before use during which time the animals are maintained in accordance with the Animal Resource Center S.O.P. Each study utilizes 36 recipient mice divided into groups of 6. The tests last approximately four days. Donor mice are sacrificed by CO2 asphyxiation and spleens are removed and made into a cell suspension. The cells (1.0·10^7/metatarsal in 0.05 mL) are injected intra dermal (according to standard protocol) into the dorsal metatarsal skin of recipient mice. Four days later, the animals are sacrificed by CO2 asphyxiation and the popliteal nodes are removed and weighed. Groups of mice receiving putative immunosuppressive agents are dosed subcutaneously, intraperitoneally or orally one hour prior to cell injection and daily thereafter according to standard protocol. Student's T-test was used to determine significant differences between popliteal lymph nodes of groups of untreated mice and those mice treated with putative immunosuppressive agents (see: Kroczek, R. A.; Black, C. D. V.; Barbet, […]. Immunology, 1987, 139, 3597). Data are reported as the dose at which 50% inhibition is observed and the manner in which the compound was administered. In Table 23, the following legends are applicable: ^and=not determined. ^bpercent inhibition at 160 μg/mL. ^cno inhibition observed up to highest dose. Exact quantification not always possible due to intrinsic toxicity of compound (see MTT result). ^[…] inhibition (concentration in μM ). ^eapproximated from incomplete dose-response curve. ^fnot determined; compound is a synthesis intermediate.

Q: Which “Mixed Lymphocyte Reaction MLR +/−” value ([1]; at 25 μM) does the source give for `CC(=O)N1C(=O)N(c2cc(Cl)cc(Cl)c2)C(=O)[C@@]1(C)Cc1ccc(Br)cc1` [Example 102] here?
A: The value was “+(25)”.

Q: What about the Kd [2] of the same compound?
A: Its Kd is 60 nM.

Q: What about the ED50 [3] of the same compound?
A: Its ED50 is roughly 25 mg/kg.

Q: What does the source list for `C[C@]1(Cc2ccc(Br)cc2)NC(=O)N(c2cc(Cl)cc(Cl)c2)C1=O` [Example 29]?
A: Mixed Lymphocyte Reaction MLR +/− ([1]; at 50 μM): +(50); ED50 [3]: ~60 mg/kg
